Source: patent US20230357233A1, “HETEROARYL COMPOUNDS, PREPARATION METHODS AND USES THEREOF” (INVENTISBIO CO., LTD., priority 2020, published 2023)

What was measured:
[1] = molecular target: Ba/F3_KRAS^G12D cells (Homo sapiens, UniProt P01116, G12D, cells depend on it); assay: Ba/F3 KRAS^G12D cell proliferation assay (cell-titer Glo); format: cell-based; conditions: cell growth inhibition, treated with the compounds for 3 days, read-out: BaF3_KRAS^G12D IC50
Protocol: Cells were seeded at a density of 5×10^3 per well into 96-well plate and incubated overnight. Serial diluted compounds were added to each well. Cells were treated with the compounds for 3 days, after which cell-titer Glo reagent (Promega #G7572) was used to assess cell proliferation. The luminescence signal was then collected on Tecan Spark plate reader. […] Cell growth inhibition of IC50 is calculated with the equation of Y=Bottom+(Top−Bottom)/(1+10^((LogIC50−X)*HillSlope))

[2] = molecular target: recombinant human KRAS^G12D protein (Homo sapiens, UniProt P01116, G12D); assay: Temperature-dependent Fluorescence (TdF) KRAS^G12D protein binding assay; conditions: 6 μM KRAS^G12D Protein, 10 μM compound, Sypro Orange; Kd calculated from fluorescent shift
Protocol: The TdF assay was conducted in the 96-well-based real-time fluorescence plate reader (ABI 7500 or Roche LightCycler 480). Fluorescent dye Sypro Orange (Sigma) was used to monitor the protein folding-unfolding transition. Protein-compound binding was gauged by the shift in the unfolding transition temperature (ΔTm) acquired with and without compound. […] The sample plate was heated from 30° C. to 95° C. with a thermal ramping rate of […], taking a fluorescence reading every 0.4° C. using a CY3 channel matching the excitation and emission wavelengths of Sypro Orange (λ ex 470 nm; λ em 570 nm). Binding affinity (Kd value) was calculated based on the degree of fluorescent shift of the protein with and without compound.

Chain of Ba/F3_KRAS^G12D cells (P01116 whole entry G12D): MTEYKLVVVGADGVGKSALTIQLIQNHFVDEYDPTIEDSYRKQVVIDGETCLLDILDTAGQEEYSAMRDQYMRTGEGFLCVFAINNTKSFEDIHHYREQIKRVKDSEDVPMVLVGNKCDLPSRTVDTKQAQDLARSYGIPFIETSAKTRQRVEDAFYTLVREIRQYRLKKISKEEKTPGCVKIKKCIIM
Chain of recombinant human KRAS^G12D protein (P01116 1-188 isoform P01116-2 G12D): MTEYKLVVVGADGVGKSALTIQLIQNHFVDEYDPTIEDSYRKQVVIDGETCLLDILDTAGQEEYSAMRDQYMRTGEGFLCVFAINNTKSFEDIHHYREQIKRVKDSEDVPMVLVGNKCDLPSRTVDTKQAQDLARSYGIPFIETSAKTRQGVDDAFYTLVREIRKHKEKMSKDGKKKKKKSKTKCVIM

Compound	GI50 [1] [nM]	Kd [2] [µM]
C[C@H]1CNCCN1c1nc(OCCN(C)C)c(-c2cccnc2C2CC2)c2nc(-c3ccccc3F)c(F)cc12 [Compound 1]	500 to 5000	> 5
Clc1cc2c(N3CC4CCC(C3)N4)nc(OCC34CCCN3CCC4)nc2nc1-c1cccc2ccccc12 [Compound 2]	> 5000	> 5
Clc1cc2c(N3CCNCC3)nc(OCC34CCCN3CCC4)nc2nc1-c1cccc2ccccc12 [Compound 3]	> 5000	> 5
CN(C)CCCOc1nc(N2CC3CCC(C2)N3)c2cc(Cl)c(-c3cccc4ccccc34)nc2n1 [Compound 4]	> 5000	> 5
Fc1cc2c(N3CCNCC3)nc(OCC34CCCN3CCC4)nc2nc1-c1cccc2cccc(Cl)c12 [Compound 5]	> 5000	> 5
Fc1c(-c2cccc3cccc(Cl)c23)ncc2c(N3CC4CCC(C3)N4)nc(OCC34CCCN3CCC4)nc12 [Compound 6]	< 500	≤ 0.5
Fc1cc2c(N3CC4CCC(C3)N4)nc(OCC34CCCN3CCC4)nc2nc1-c1cccc2cccc(Cl)c12 [Compound 7]	> 5000	> 5
CN1CCC[C@H]1COc1nc(N2CC3CCC(C2)N3)c2cc(F)c(-c3cccc4cccc(Cl)c34)nc2n1 [Compound 8]	500 to 5000	> 5
Fc1cc2c(N3C4CCC3CNC4)nc(OCC34CCCN3CCC4)nc2nc1-c1cccc2cccc(Cl)c12 [Compound 9]	> 5000	> 5
Oc1cc(-c2nc3nc(OCC45CCCN4CCC5)nc(N4CC5CCC(C4)N5)c3cc2Cl)c2ccccc2c1 [Compound 10]	> 5000	> 5
Nc1cccc(F)c1-c1nc2nc(OCC34CCCN3CCC4)nc(N3CC4CCC(C3)N4)c2cc1Cl [Compound 11]	> 5000	> 5
Oc1cc(-c2ncc3c(N4CC5CCC(C4)N5)nc(OCC45CCCN4CCC5)nc3c2F)c2ccccc2c1 [Compound 12]	500 to 5000	≤ 0.5
C[C@H]1CNCCN1c1nc(OCCN(C)C)cc2nc(-c3ccccc3F)c(F)cc12 [Compound 13]	500 to 5000	> 5
Fc1cc2c(N3CC4CCC(C3)N4)nc(OCC34CCCN3CCC4)cc2nc1-c1cccc2ccccc12 [Compound 14]	500 to 5000	> 5
CN(C)CCCOc1nc(N2CC3CCC(C2)N3)c2cc(F)c(-c3cccc4cccc(Cl)c34)nc2n1 [Compound 15]	> 5000	> 5
Fc1ccccc1-c1nc2cc(OCC34CCCN3CCC4)nc(N3CC4CCC(C3)N4)c2cc1F [Compound 16]	500 to 5000	> 5
CN(C)CCCn1c(=O)nc(N2CC3CCC(C2)N3)c2cnc(-c3cccc4cccc(Cl)c34)c(F)c21 [Compound 17]	> 5000	> 5
C#Cc1c(F)ccc2cc(O)cc(-c3nc(OCC)c4c(N5C[C@H]6CC[C@@H](C5)[C@@H]6O)nc(OC[C@@]56CCCN5C[C@H](F)C6)nc4c3F)c12 [Compound 212]	< 500	–
CCOc1nc(-c2cc(N)cc(F)c2C(F)(F)F)c(F)c2nc(OC[C@@]34CCCN3C[C@H](F)C4)nc(N3CC4CCC(C3)N4)c12 [Compound 213]	< 500	–
CCOc1nc(-c2cc(O)cc(F)c2C(F)(F)F)c(F)c2nc(OC[C@@]34CCCN3C[C@H](F)C4)nc(N3CC4CCC(C3)N4)c12 [Compound 214]	500 to 5000	–
C#Cc1c(F)ccc2cc(O)cc(-c3nc(OC(C)C)c4c(N5CCNCC(F)(F)C5)nc(OC[C@@]56CCCN5C[C@H](F)C6)nc4c3F)c12 [Compound 219]	< 500	–
C#Cc1c(F)ccc2cc(O)cc(-c3nc(OC(C)C)c4c(N5CCNC(C(F)F)C5)nc(OC[C@@]56CCCN5C[C@H](F)C6)nc4c3F)c12 (some centres unmarked) [Compound 220]	< 500	–
C#Cc1c(F)ccc2cc(O)cc(-c3nc(OCC)c4c(N5CC6CCC(C5)N6)ncnc4c3F)c12 [Compound 221]	< 500	–
C#Cc1c(F)ccc2cc(O)cc(-c3nc(OC(C)C)c4c(N5CCNC6(CC6)C5)nc(OC[C@@]56CCCN5C[C@H](F)C6)nc4c3F)c12 [Compound 241]	< 500	–
C#Cc1c(F)ccc2cc(O)cc(-c3nc(OC(C)C)c4c(N5CCNC(CF)C5)nc(OC[C@@]56CCCN5C[C@H](F)C6)nc4c3F)c12 (some centres unmarked) [Compound 242]	< 500	–
C#Cc1c(F)ccc2cccc(-c3nc(OC)c4c(N5CCNCC(F)(F)C5)nc(OC[C@]56CCCN5[C@@H](COC(=O)N(C)C)CC6)nc4c3F)c12 [Compound 247]	500 to 5000	–

Results, then the compound that gave them:

GI50 [1] [nM]	Kd [2] [µM]	Compound
< 500	–	CCc1c(F)ccc2cc(O)cc(-c3nc(OC)c4c(N5CC6CCC(C5)N6)nc(OC[C@]56CCCN5[C@@H](COC(=O)N(C)C)CC6)nc4c3F)c12 [Compound 215]
< 500	–	C#Cc1c(F)ccc2cccc(-c3nc(OC)c4c(N5CC6CCC(C5)N6)nc(OC[C@]56CCCN5[C@@H](COC(=O)N(C)C)CC6)nc4c3F)c12 [Compound 216]
< 500	–	CCc1c(F)ccc2cccc(-c3nc(OC)c4c(N5CC6CCC(C5)N6)nc(OC[C@]56CCCN5[C@@H](COC(=O)N(C)C)CC6)nc4c3F)c12 [Compound 217]
< 500	–	C#Cc1c(F)ccc2cc(O)cc(-c3nc(OC(C)C)c4c(N5CC6CCC(C5)N6)nc(C)nc4c3F)c12 [Compound 218]
< 500	–	C#Cc1c(F)ccc2cccc(-c3nc(OC(C)C)c4c(N5CC6CCC(C5)N6)nc(OC[C@]56CCCN5[C@@H](COC(=O)N(C)C)CC6)nc4c3F)c12 [Compound 222]
< 500	–	CCc1c(F)ccc2cccc(-c3nc(OC(C)C)c4c(N5CC6CCC(C5)N6)nc(OC[C@]56CCCN5[C@@H](COC(=O)N(C)C)CC6)nc4c3F)c12 [Compound 223]
< 500	–	C#Cc1c(F)ccc2cc(O)cc(-c3nc(OC)c4c(N5CC6CCC(C5)N6)nc(OCC5(CN6CCN(C(=O)CCCCCCCCCCCCCCC)CC6)CC5)nc4c3F)c12 [Compound 224]
< 500	–	C#Cc1c(F)ccc2cc(O)cc(-c3nc(OC(C)C)c4c(N5CC6CCC(C5)N6)nc(OC[C@]56CCCN5[C@@H](COC(=O)N(C)C)CC6)nc4c3F)c12 [Compound 225]
< 500	–	C#Cc1c(F)ccc2cc(O)cc(-c3nc(OC(C)C)c4c(N5CC6CCC(C5)N6)nc(OC[C@]56CCCN5[C@H](COC(=O)N(C)C)CC6)nc4c3F)c12 [Compound 226]
< 500	–	C#Cc1c(F)ccc2cc(O)cc(-c3nc(OC(C)C)c4c(N5CC6CCC(C5)N6)nc(OC[C@]56CCCN5[C@@H](CO)CC6)nc4c3F)c12 [Compound 227]
< 500	–	C#Cc1c(F)ccc2cc(O)cc(-c3nc(OC(C)C)c4c(N5CC6CCC(C5)N6)nc(OC[C@]56CCCN5[C@H](CO)CC6)nc4c3F)c12 [Compound 228]
< 500	–	C#Cc1c(F)ccc2cc(O)cc(-c3nc(OC(C)C)c4c(N5CC6CCC(C5)N6)nc(OCC5(CN6CCOCC6)CC5)nc4c3F)c12 [Compound 229]
< 500	–	C#Cc1c(F)ccc2cc(O)cc(-c3nc(OC(C)C)c4c(N5CC6CCC(C5)N6)nc(OCC5(CN6CCN(C)CC6)CC5)nc4c3F)c12 [Compound 230]
< 500	–	C#Cc1c(F)ccc2cc(O)cc(-c3nc(OC(C)C)c4c(N5CC6CCC(C5)N6)nc(OCC5(CN6CCN(C(C)=O)CC6)CC5)nc4c3F)c12 [Compound 231]
< 500	–	C#Cc1c(F)ccc2cc(O)cc(-c3nc(OC(C)C)c4c(N5CC6CCC(C5)N6)nc(OCC5(CN6CCN(C(=O)OC)CC6)CC5)nc4c3F)c12 [Compound 232]
< 500	–	C#Cc1c(F)ccc2cc(O)cc(-c3nc(OCC)c4c(N5CC6CCC(C5)N6)nc(OC[C@]56CCCN5[C@@H](COC(=O)N(C)C)CC6)nc4c3F)c12 [Compound 233]
< 500	–	C#Cc1c(F)ccc2cc(O)cc(-c3nc(OCC)c4c(N5CC6CCC(C5)N6)nc(OCC5(CN6CCOCC6)CC5)nc4c3F)c12 [Compound 234]
< 500	–	C#Cc1c(F)ccc2cc(O)cc(-c3nc(OC(C)C)c4c(N5CC6CCC(C5)N6)nc(OC[C@@H]5C[C@@H](OC(=O)N(C)C)CN5C)nc4c3F)c12 [Compound 235]
< 500	–	C#Cc1c(F)ccc2cccc(-c3nc(OCC)c4c(N5CC6CCC(C5)N6)nc(OC[C@]56CCCN5[C@@H](COC(=O)N(C)C)CC6)nc4c3F)c12 [Compound 236]
< 500	–	CCOc1nc(-c2cccc3ccc(F)c(CC)c23)c(F)c2nc(OC[C@]34CCCN3[C@@H](COC(=O)N(C)C)CC4)nc(N3CC4CCC(C3)N4)c12 [Compound 237]
< 500	–	C#Cc1c(F)ccc2cccc(-c3nc(OC(C)C)c4c(N5CC6CCC(C5)N6)nc(OC[C@]56CCCN5[C@@H](CO)CC6)nc4c3F)c12 [Compound 238]
500 to 5000	–	C#Cc1c(F)ccc2cc(O)cc(-c3nc(O)c4c(N5CC6CCC(C5)N6)nc(OC[C@]56CCCN5[C@@H](COC(=O)N(C)C)CC6)nc4c3F)c12 [Compound 239]
< 500	–	C#Cc1c(F)ccc2cc(O)cc(-c3nc(OC)c4c(N5CC6CCC(C5)N6)nc(OC[C@]56CCCN5[C@@H](COC(=O)N(C)CCCCCCCCCCCCCCCC)CC6)nc4c3F)c12 [Compound 243]
< 500	–	C#Cc1c(F)ccc2cccc(-c3nc(OC(C)C)c4c(N5CC6CCC(C5)N6)nc(OC[C@]56CCCN5[C@@H](COC(=O)N5CCOCC5)CC6)nc4c3F)c12 [Compound 245]
500 to 5000	–	C#Cc1c(F)ccc2cccc(-c3nc(OC(C)C)c4c(N5CC6CCC(C5)N6)nc(OC[C@@H]5C[C@@H](OC(=O)N(C)CCCCCCCCCCCCCCCC)CN5C)nc4c3F)c12 [Compound 246]
